Reference: US20100120715A1, “BETA-LACTAMASE INHIBITORS” (priority 2007, published 2010)
Like-named read-outs stand apart in the source and are kept apart here.

Legend:
[1] = system: K. pneumoniae expressing the Class A carbapenemase KPC-2; experiment: microbe, parasite or virus in culture; conditions: in the presence of fixed 8 μg/mL Ceftazidime
[2] = target: T1, Class A ESBL CTXM-15 (Escherichia coli, UniProt Q9EXV5); experiment: β-lactamase enzyme inhibition (nitrocefin hydrolysis), CTXM-15; format: biochemical; conditions: purified enzyme; nitrocefin 100 μM, PBS pH 7.0; read-out: CTXM-15 IC50 Range
T1 construct: made in house; host or cells: E. coli BL21(DE3)
T1 sequence (Q9EXV5 entry or part of it): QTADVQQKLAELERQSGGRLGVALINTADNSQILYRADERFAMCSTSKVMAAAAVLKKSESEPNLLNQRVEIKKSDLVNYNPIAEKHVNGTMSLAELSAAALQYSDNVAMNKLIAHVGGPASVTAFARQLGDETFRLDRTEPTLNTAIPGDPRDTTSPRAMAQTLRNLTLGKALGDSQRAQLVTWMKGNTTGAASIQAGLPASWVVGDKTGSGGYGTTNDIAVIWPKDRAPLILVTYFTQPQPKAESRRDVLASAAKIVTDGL
Procedure, shortened: (§1)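 Native untagged enzymes were expressed in E. coli BL21(DE3) and purified by cation exchange and gel filtration. Compound series (100–0.005 μM in PBS pH 7.0, before addition of an equal enzyme volume) were preincubated with enzyme 10 min at 37°C. Nitrocefin (100 μM final) hydrolysis was read kinetically at 486 nm for 10 min, and IC50 was taken as 50% reduction of initial rate versus no-inhibitor wells.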

[3] = target: T2, Class C P99 AmpC (Enterobacter cloacae, UniProt P05364); format: biochemical; conditions: purified enzyme; nitrocefin 100 μM, PBS pH 7.0; read-out: P99 AmpC IC50 Range
T2 construct: made in house; host or cells: E. coli BL21(DE3)
T2 sequence (P05364 21-381): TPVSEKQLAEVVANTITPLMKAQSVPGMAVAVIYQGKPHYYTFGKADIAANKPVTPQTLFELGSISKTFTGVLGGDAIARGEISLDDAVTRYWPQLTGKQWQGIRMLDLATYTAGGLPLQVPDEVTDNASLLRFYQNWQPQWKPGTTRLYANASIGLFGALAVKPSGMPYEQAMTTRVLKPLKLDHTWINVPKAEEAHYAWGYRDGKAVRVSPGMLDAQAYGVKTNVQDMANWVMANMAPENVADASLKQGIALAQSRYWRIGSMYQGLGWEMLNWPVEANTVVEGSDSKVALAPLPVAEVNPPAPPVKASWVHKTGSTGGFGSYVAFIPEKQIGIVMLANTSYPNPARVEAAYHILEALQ
Procedure, shortened: as §1

[4] = target: T3, Class A carbapenemase KPC-2 (Klebsiella pneumoniae, UniProt Q9F663); experiment: β-lactamase enzyme inhibition (nitrocefin hydrolysis), KPC-2; format: biochemical; conditions: purified enzyme; nitrocefin 100 μM, PBS pH 7.0; read-out: KPC-2 IC50 Range
T3 construct: made in house; host or cells: E. coli BL21(DE3)
T3 sequence (Q9F663 25-293 limits assumed): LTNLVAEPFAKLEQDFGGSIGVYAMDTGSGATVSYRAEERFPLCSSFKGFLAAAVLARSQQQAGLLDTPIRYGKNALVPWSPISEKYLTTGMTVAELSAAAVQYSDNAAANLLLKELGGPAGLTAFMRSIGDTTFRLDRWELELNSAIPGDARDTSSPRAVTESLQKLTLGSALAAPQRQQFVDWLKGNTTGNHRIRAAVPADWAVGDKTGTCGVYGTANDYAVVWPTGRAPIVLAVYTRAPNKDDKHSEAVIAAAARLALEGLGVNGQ
Procedure, shortened: as §1

[5] = system: K. pneumoniae expressing the Class A ESBL CTX-M-15; experiment: microbe, parasite or virus in culture; format: cell-based; conditions: in the presence of fixed 8 μg/mL Ceftazidime
[6] = target: T4, Class A ESBL SHV-5 (Klebsiella pneumoniae, UniProt P0A3M1); format: biochemical, E. coli; conditions: nitrocefin 100 μM, PBS pH 7.0, read-out: SHV-5 IC50 Range
T4 construct: made in house; host or cells: E. coli BL21(DE3) for purified enzyme; E. coli cells containing SHV-5 for extracts
T4 sequence (P0A3M1 22-286): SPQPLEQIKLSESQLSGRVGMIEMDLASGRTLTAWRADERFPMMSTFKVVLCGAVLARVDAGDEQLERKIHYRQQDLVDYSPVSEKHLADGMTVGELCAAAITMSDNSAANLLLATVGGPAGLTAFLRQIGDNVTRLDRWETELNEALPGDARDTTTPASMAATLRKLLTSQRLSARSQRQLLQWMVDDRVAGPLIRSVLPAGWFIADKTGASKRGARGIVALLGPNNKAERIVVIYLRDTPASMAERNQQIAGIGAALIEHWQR

[7] = system: E. cloacae expressing the Class C P99+ AmpC; experiment: microbe, parasite or virus in culture; format: cell-based; conditions: in the presence of fixed 8 μg/mL Ceftazidime
Source text: (§2) To determine the ability of test compounds to potentiate the inhibition of the growth of bacterial strains producing beta-lactamase enzymes, classic cell based screening assays were employed. Four bacteria strains producing beta-lactamase enzymes were used: K. pneumoniae expressing the Class A Extended Spectrum Beta-Lactamase (ESBL) CTX-M-15, E. coli expressing the Class A ESBL SHV-5, E. cloacae expressing the Class C P99+, and K. pneumoniae expressing the Class A carbapenemase KPC-2. In order to evaluate the ability of test compounds to inhibit beta-lactamase activity, Applicants used a modification of the broth microdilution assay. The assay was conducted in Cation Adjusted Mueller Hinton Broth (CAMHB, BD # 212322, BD Diagnostic Systems, Sparks, Md.). Bacteria strains were grown for 3-5 hours in CAMBH broth. All four strains were grown in presence of 50 μg/mL ampicillin to ensure resistance is maintained. In the meantime, test compounds were diluted in DMSO to a 0.1 mg/mL stock. The compounds were added to a microtiter plate and were diluted in 2-fold serial dilutions in CAMHB in a final concentration range of 8 μg/mL to 0.015 μg/ml. An overlay of CAMHB containing a cephalosporin was added to the compounds at a final static concentration of 8 μg/ml. […] Each of these compound plates are made in quadruplicate, one for each bacteria strain. In addition to the titration of test compounds the MICs of a panel of cephalosporins is also tested to ensure the strains are behaving consistently from test to test. Once the test compound and cephalosporin are added the plates can be inoculated. Inocula are conducted according to CLSI broth microdilution method. After inoculation the plates are incubated for 16-20 hours at 37° C. then the Minimal Inhibitory Concentration (MIC) of the test compound is determined visually.

[8] = system: E. coli expressing the Class A ESBL SHV-5; experiment: microbe, parasite or virus in culture; format: cell-based; conditions: in the presence of fixed 8 μg/mL Ceftazidime
Source text: as §2

[9] = cellular extracts of E. coli containing SHV-5 (Examples 2-30)
[10] = purified beta-lactamase enzyme (Examples 1 and 31-64)

Row | Compound | MIC of example compound, K. pneumoniae KPC-2 + 8 μg/mL CAZ [1] | IC50 [2] | IC50 [3] | IC50 [4] | MIC of example compound, K. pneumoniae CTX-M-15 + 8 μg/mL CAZ [5] | IC50 [6, 9] | MIC of example compound, E. cloacae P99 AmpC + 8 μg/mL CAZ [7] | IC50 [6, 10] | MIC of example compound, E. coli SHV-5 + 8 μg/mL CAZ [8]
1 | CCC(=O)N[C@@H](Cc1cccc(C(=O)O)c1O)B(O)O [Example 16, (1R)-1-(propionylamino)-2-(2-hydroxy-3-carboxyphenyl)ethyl-1-boronic acid] | C (C represents an MIC of <1 μg/mL) | 10 to 100 nM | 10 to 100 nM | 10 to 100 nM | C (C represents an MIC of <1 μg/mL) | 100 to 1000 nM | C (C represents an MIC of <1 μg/mL) |  | 
2 | O=C(O)c1cccc(C[C@H](NC(=O)C2CC2)B(O)O)c1O [Example 20, (1R)-1-Cyclopropanecarbonyl-amino-1-(3-carboxy-2-hydroxy)benzyl-methylboronic acid] | C (C represents an MIC of <1 μg/mL) | < 10 nM | < 10 nM | 10 to 100 nM | C (C represents an MIC of <1 μg/mL) | 100 to 1000 nM | C (C represents an MIC of <1 μg/mL) |  | 
3 | O=C(O)c1cccc(C[C@H](NC(=O)c2c(Cl)cccc2Cl)B(O)O)c1O [Example 43, (1R)-1-(2,6-Dichlorobenzoyl)-amino-1-(3-carboxy-2-hydroxy)benzyl-methylboronic acid] | A (A represents an MIC >8 μg/mL) | 10 to 100 nM | < 10 nM | 10 to 100 nM | A (A represents an MIC >8 μg/mL) |  |  | > 1000 nM | A (A represents an MIC >8 μg/mL)
4 | NCc1cccc(C(=O)N[C@@H](Cc2cccc(C(=O)O)c2O)B(O)O)c1.O=CO [Example 42, (1R)-1-(3-aminomethyl)-benzoylamino-1-(3-carboxy-2-hydroxy)benzyl-methyl boronic acid formate] | C (C represents an MIC of <1 μg/mL) | < 10 nM | < 10 nM | 10 to 100 nM |  |  | C (C represents an MIC of <1 μg/mL) | 100 to 1000 nM | 
5 | O=C(Cc1cccs1)N[C@@H](Cc1ccc(C(=O)O)cc1O)B(O)O [Example 2, (1R)-1-(2-thiophene-2-yl-acetylamino)-2-(2-hydroxy-4-carboxyphenyl)ethyl-1-boronic acid] |  | 100 to 1000 nM | 100 to 1000 nM |  |  | 10 to 100 nM | A (A represents an MIC >8 μg/mL) |  | 
6 | O=C(N[C@@H](Cc1cccc(C(=O)O)c1O)B(O)O)c1cccs1 [Example 11, (1R)-1-(thiophene-2-carbonyl-amino)-2-(2-hydroxy-3-carboxyphenyl)ethyl-1-boronic acid] | C (C represents an MIC of <1 μg/mL) | < 10 nM | < 10 nM |  | C (C represents an MIC of <1 μg/mL) | 10 to 100 nM | C (C represents an MIC of <1 μg/mL) |  | 
7 | O=C(O)c1cccc(C[C@H](NC(=O)C2CCCC2)B(O)O)c1O [Example 15, (1R)-1-Cyclopentanecarbonylamino-(3-carboxy-2-hydroxy)benzyl-methylboronic acid] | C (C represents an MIC of <1 μg/mL) | 10 to 100 nM | < 10 nM |  | C (C represents an MIC of <1 μg/mL) | 100 to 1000 nM | C (C represents an MIC of <1 μg/mL) |  | 
8 | O=C(Cc1cccnc1)N[C@@H](Cc1cccc(C(=O)O)c1O)B(O)O.O=CO [Example 59, (1R)-1-(3-Pyridylacetylamino)-2-(2-hydroxy-3-carboxyphenyl)ethyl-1-boronic acid formate salt] | C (C represents an MIC of <1 μg/mL) | < 10 nM | < 10 nM | < 10 nM | C (C represents an MIC of <1 μg/mL) |  |  | < 10 nM | C (C represents an MIC of <1 μg/mL)
9 | CCCCCC(=O)N[C@@H](Cc1cccc(C(=O)O)c1O)B(O)O [Example 21, (1R)-1-Hexanoylamino-(3-carboxy-2-hydroxy)benzyl-methylboronic acid] | C (C represents an MIC of <1 μg/mL) | < 10 nM | < 10 nM | < 10 nM | C (C represents an MIC of <1 μg/mL) | < 10 nM |  |  | C (C represents an MIC of <1 μg/mL)
10 | O=C(Cc1cc(Br)cs1)N[C@@H](Cc1cccc(C(=O)O)c1O)B(O)O [Example 9, (1R)-1-(2-(4-bromo-thiophen-2-nyl)acetylamino)-2-(2-hydroxy-3-carboxyphenyl)ethyl-1-boronic acid] | C (C represents an MIC of <1 μg/mL) | < 10 nM | < 10 nM | 10 to 100 nM | C (C represents an MIC of <1 μg/mL) | < 10 nM |  |  | C (C represents an MIC of <1 μg/mL)
11 | COc1cccc(C(=O)N[C@@H](Cc2cccc(C(=O)O)c2O)B(O)O)c1 [Example 29, (1R)-1-(3-methoxybenzoylamino)-2-(2-hydroxy-3-carboxyphenyl)ethyl-1-boronic acid] | C (C represents an MIC of <1 μg/mL) | < 10 nM | < 10 nM | < 10 nM | C (C represents an MIC of <1 μg/mL) | 10 to 100 nM |  |  | C (C represents an MIC of <1 μg/mL)
12 | NCCC(=O)N[C@@H](Cc1cccc(C(=O)O)c1O)B(O)O.O=CO [Example 38, (1R)-1-(3-aminopropanoylamino)-2-(2-hydroxy-3-carboxyphenyl)ethyl-1-boronic acid formate salt] | C (C represents an MIC of <1 μg/mL) | 100 to 1000 nM | 100 to 1000 nM | 100 to 1000 nM | A (A represents an MIC >8 μg/mL) |  |  | > 1000 nM | A (A represents an MIC >8 μg/mL)
13 | CC(C)C(=O)N[C@@H](Cc1cccc(C(=O)O)c1O)B(O)O [Example 14, (1R)-1-Isobutyrylamino-1-(3-carboxy-2-hydroxy)benzyl-methylboronic acid] | C (C represents an MIC of <1 μg/mL) | 10 to 100 nM | < 10 nM |  | C (C represents an MIC of <1 μg/mL) | 100 to 1000 nM | C (C represents an MIC of <1 μg/mL) |  | 
14 | O=C(CCC(=O)c1cccs1)N[C@@H](Cc1cccc(C(=O)O)c1O)B(O)O [Example 5, (1R)-1-(4-Oxo-4-thiophen-2-yl-butyrylamino)-2-(2-hydroxy-3-carboxyphenyl)ethyl-1-boronic acid] | C (C represents an MIC of <1 μg/mL) | < 10 nM | < 10 nM |  | C (C represents an MIC of <1 μg/mL) | < 10 nM | C (C represents an MIC of <1 μg/mL) |  | 
